# Measurements published in patent publication US20250026748A1, “N-(5-SUBSTITUTED-[(1,3,4-THIADIAZOLYL) OR (THIAZOLYL)])(SUBSTITUTED)CARBOXAMIDE COMPOUNDS AND USE THEREOF FOR INHIBITING HUMAN POLYMERASE THETA” (Repare Therapeutics Inc., priority 2021, published 2025).
# Target: PolQ ATPase enzyme (1-894) (Homo sapiens (Human), UniProt O75417)
# Assay: Polθ ATPase enzymatic assay (0.5 nM enzyme concentration), ADP-Glo
# Assay type: biochemical
# Details: average IC50; 0.5 nM PolQ ATPase enzyme (1-894)
# Method in brief: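 Enzyme (0.5 nM) pre-incubated 15 min at rt with 10-point inhibitor series in 50 mM Tris pH 7.5, 10% glycerol, 5 mM DTT, 10 mM MgCl2, 0.1 mg/ml BSA; reaction started with 20 nM fork DNA and 100 μM ATP, run 180 min at rt. ADP-Glo luminescence; IC50 from 4-parameter variable-slope fit.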
# Sequence of PolQ ATPase enzyme (1-894) (O75417 1-894): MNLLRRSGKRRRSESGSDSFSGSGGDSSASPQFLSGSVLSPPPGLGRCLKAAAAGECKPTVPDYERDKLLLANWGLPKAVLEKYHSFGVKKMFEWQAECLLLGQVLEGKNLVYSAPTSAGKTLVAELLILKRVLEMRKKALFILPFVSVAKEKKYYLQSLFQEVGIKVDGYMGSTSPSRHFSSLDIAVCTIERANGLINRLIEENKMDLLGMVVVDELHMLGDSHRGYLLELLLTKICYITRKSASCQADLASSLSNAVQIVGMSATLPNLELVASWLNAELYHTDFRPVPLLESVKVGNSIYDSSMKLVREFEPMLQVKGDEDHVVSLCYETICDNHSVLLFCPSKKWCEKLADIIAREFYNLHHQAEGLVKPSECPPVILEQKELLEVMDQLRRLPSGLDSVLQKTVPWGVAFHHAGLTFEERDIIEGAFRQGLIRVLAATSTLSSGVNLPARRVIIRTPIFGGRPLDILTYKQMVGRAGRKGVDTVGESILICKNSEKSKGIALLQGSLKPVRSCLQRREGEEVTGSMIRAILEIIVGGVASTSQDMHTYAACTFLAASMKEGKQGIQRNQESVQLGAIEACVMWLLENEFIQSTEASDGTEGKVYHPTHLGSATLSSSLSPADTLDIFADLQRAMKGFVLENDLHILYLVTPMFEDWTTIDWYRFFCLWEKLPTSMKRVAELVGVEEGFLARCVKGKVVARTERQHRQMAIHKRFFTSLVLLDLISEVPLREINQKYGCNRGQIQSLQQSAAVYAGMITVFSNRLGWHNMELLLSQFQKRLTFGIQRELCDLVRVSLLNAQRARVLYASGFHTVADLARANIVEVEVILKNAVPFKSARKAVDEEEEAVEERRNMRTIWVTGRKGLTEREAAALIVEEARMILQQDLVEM
row,Compound,IC50 [nM]
1,"COc1ccc(C(F)(F)F)cc1-c1cnccc1C(=O)Nc1nnc(C#Cc2cc(C)[nH]n2)s1 [Compound 27, 3-[2-methoxy-5-(trifluoromethyl)phenyl]-N-[5-[2-(5-methyl-1H-pyrazol-3-yl)ethynyl]-1,3,4-thiadiazol-2-yl]pyridine-4-carboxamide]",0.26
2,COc1cnc(C(F)F)cc1-c1cc(OCC2CC2)ncc1C(=O)Nc1nnc(C#CC2CC2)s1 [Compound 180],4.6
3,COc1cnc(C(F)F)cc1-c1cc(C#CC2CCCOC2)ncc1C(=O)Nc1nnc(C#Cc2cc(C)[nH]n2)s1 (stereo not drawn) [Compound 146],< 0.25
4,COc1ccc(C(F)F)cc1-c1cn2ncnc2cc1C(=O)Nc1nnc(C#CC2CC2)s1 [Compound 328],3.1
5,COc1cnc(C(F)F)cc1-c1cc(-n2cccc(C(F)(F)F)c2=O)ncc1C(=O)Nc1nnc(C#CC2CC2)s1 [Compound 456],< 0.25
6,O=C(Nc1ncc(C#CC2CC2)s1)c1cc(=O)n(Cc2nccs2)cc1-c1cc(C(F)F)ccc1Cl [Compound 208],14
7,COc1cnc(C(F)F)cc1-c1ccncc1C(=O)Nc1nnc(C#CC2CC2)s1 [Compound 316],1.6
8,COc1cnc(C(F)F)cc1-c1cc(N2CCC(C(C)(C)C)CC2=O)ncc1C(=O)Nc1nnc(C#CC2CC2)s1 (stereo not drawn) [Compound 444],< 0.25
9,COc1ccc(C(F)F)cc1-c1cnccc1C(=O)Nc1nnc(C#CC2CC23CC3)s1 (stereo not drawn) [Compound 55],< 0.25
10,COc1ccc(C(F)(F)F)cc1-c1cn(CC(=O)N(C)C)c(=O)cc1C(=O)Nc1nnc(C#CC2CC2)s1 [Compound 75],< 0.25
11,COc1ccn(-c2cc(-c3cc(C(F)F)ncc3OC)c(C(=O)Nc3nnc(C#CC4CC4)s3)cn2)c(=O)c1 [Compound 434],< 0.25
12,COc1cnc(C(F)F)cc1-c1cc(-n2ccc(C(F)(F)F)cc2=O)ncc1C(=O)Nc1nnc(C#CC2CC2)s1 [Compound 445],< 0.25
13,COc1cnc(Cl)nc1-c1cn(C)c(=O)cc1C(=O)Nc1nnc(C#CC2CC2)s1 [Compound 335],4.3
14,COc1cnc(C(F)F)cc1-c1cnccc1C(=O)Nc1nnc([C@H]2C[C@@H]2c2ccc(C#N)cc2)s1 [Compound 275],3.1
15,COc1cnc(C(F)F)cc1-c1cc(N2CC(C)(C)N(C)CC2=O)ncc1C(=O)Nc1nnc(C#CC2CC2)s1 [Compound 471],2.1
16,COc1cnc(C(F)F)cc1-c1cc(OCCOC(F)F)ncc1C(=O)Nc1nnc(C#CC2CC2)s1 [Compound 181],0.75
17,COc1cnc(C(F)F)cc1-c1cn2cc(C(=O)N(C)C)nc2cc1C(=O)Nc1nnc(C#CC2CC2)s1 [Compound 315],4.5
18,COc1cnc(C(F)F)cc1-c1cc(N2CCC(C)(C)CC2=O)ncc1C(=O)Nc1nnc(C#CC2CC2)s1 [Compound 353],0.49
19,[2H]C([2H])([2H])Oc1cnc(C(F)F)cc1-c1cc(-c2ccn(C)n2)ncc1C(=O)Nc1nnc(C#CC2CC2)s1 [Compound 375],< 0.25
20,COc1cnc(Cl)cc1-c1cncc(F)c1C(=O)Nc1nnc(C#CC2CC2)s1 [Compound 327],4.1
21,COc1ccc(C(F)(F)F)cc1-c1cc(-c2ccn(C)n2)ncc1C(=O)Nc1nnc(C#CC2CC2)s1 [Compound 308],0.42

row,Compound,IC50 [nM]
1,COc1cnc(C(F)F)cc1-c1cc(-n2cncn2)ncc1C(=O)Nc1nnc(C#CC2CC2)s1 [Compound 263],< 0.25
2,Cc1nnc(Cn2cc(-c3cc(C(F)F)ncc3C)c(C(=O)Nc3ncc(C#CC4CC4)s3)cc2=O)o1 [Compound 126],< 0.25
3,COc1cnc(C(F)F)cc1-c1cc(-c2cccc(C)n2)ncc1C(=O)Nc1nnc(C#CC2CC2)s1 [Compound 422],0.54
4,COc1ccc(F)cc1-c1cnccc1C(=O)Nc1nnc(C#Cc2cc(C#N)[nH]n2)s1 [Compound 101],< 0.25
5,[2H]C([2H])([2H])N(C(C)=O)c1ccc(C(=O)Nc2nnc(C#CC3CC34CC4)s2)c(-c2cc(C(F)F)ncc2OC)c1 (stereo not drawn) [Compound 237],< 0.25
6,COc1cnc(C(F)F)cc1-c1cc(N2CCC3(CCC3)CC2=O)ncc1C(=O)Nc1nnc(C#CC2CC2)s1 [Compound 395],0.25
7,COc1cnc(C(F)F)cc1-c1cc(C#CC(C)(C)O)ncc1C(=O)Nc1nnc(C#CC2CC2)s1 [Compound 253],< 0.25
8,COc1cnc(C(F)F)cc1-c1cc(Cl)ncc1C(=O)Nc1ncc(C#CC2CC2)s1 [Compound 289],0.88
9,COc1ccc(C(F)(F)F)cc1-c1cc(-c2ccn(C)n2)ncc1C(=O)Nc1nnc(C#CC2CC2)s1 [Compound 309],0.99
10,COc1cnc(C(F)F)cc1-c1cc(Cc2nnc(C)o2)ncc1C(=O)Nc1ncc(C#CC2CC2)s1 [Compound 401],< 0.25
11,COc1ccc(C(F)F)cc1-c1cc(C(=O)N(C)C)ncc1C(=O)Nc1nnc(C#CC2CC2)s1 [Compound 293],< 0.25
12,COc1cnc(C(F)F)cc1-c1cc(N(C)C(=O)C2(C)CC2)ccc1C(=O)Nc1nnc(C#CC2CC2)s1 [Compound 221],0.98
13,COc1cnc(C(F)F)cc1-c1cc(N2CCn3nccc3C2=O)ncc1C(=O)Nc1nnc(C#CC2CC2)s1 [Compound 133],< 0.25
14,COc1cnc(Cl)cc1-c1cc(N2CCC(O)C2=O)ccc1C(=O)Nc1nnc(C#CC2CC2)s1 (stereo not drawn) [Compound 277],3.2
15,O=C(Nc1nnc(C#CC2CC2)s1)c1ccncc1-c1cc(Cl)ncc1Cl [Compound 44],0.31
16,COc1ccc(C(F)(F)F)cc1-c1cn2ncnc2cc1C(=O)Nc1nnc(C#Cc2cc(C)[nH]n2)s1 [Compound 86],1.6
17,COc1cnc(C(F)F)cc1-c1cc(N2CCCC(F)C2=O)ncc1C(=O)Nc1nnc(C#CC2CC2)s1 (stereo not drawn) [Compound 352],< 0.25
18,COc1cnc(C(F)F)cc1-c1cc(-c2cnn(C3CCNCC3)c2)ncc1C(=O)Nc1nnc(C#CC2CC2)s1 [Compound 398],2.1
19,COc1cnc(C(F)F)cc1-c1cc(N(C)c2nnc(C)o2)ccc1C(=O)Nc1ncc(C#CC2CC2)s1 [Compound 119],23
20,"COc1cnc(C(F)F)cc1-c1cn(C)c(=O)cc1C(=O)Nc1nnc(C#CC2CC2)s1 [Compound 37, N-(5-(cyclopropylethynyl)-1,3,4-thiadiazol-2-yl)-2′-(difluoromethyl)-5′-methoxy-1-methyl-6-oxo-1,6-dihydro-[3,4′-bipyridine]-4-carboxamide]",3.3
21,COc1cnc(C(F)F)cc1-c1cc(N2CCNCC2=O)ncc1C(=O)Nc1nnc(C#CC2CC2)s1 [Compound 364],0.559

row,Compound,IC50 [nM]
1,COc1ccc(C(F)(F)F)cc1-c1cn(C)c(=O)cc1C(=O)Nc1nnc(C#CC2CC2)s1 [Compound 80],2.1
2,Cc1nnc(Cn2cc(-c3cc(C(F)(F)F)ccc3Cl)c(C(=O)Nc3nnc(C#CC4CC4)s3)cc2=O)o1 [Compound 61],< 0.25
3,COc1cnc(C(F)F)cc1-c1cc(N(C)C)ncc1C(=O)Nc1nnc(C#CC2CC2)s1 [Compound 286],21
4,COc1cnc(C(F)F)cc1-c1cc(C2=CCOCC2)ncc1C(=O)Nc1nnc(C#CC2CC2)s1 [Compound 284],5.6
5,COc1cnc(C(F)F)cc1-c1cn(C)c(=O)cc1C(=O)Nc1nnc(C2C[C@H]2c2ccc(C#N)cc2)s1 (stereo partly drawn) [Compound 322],1.9
6,COc1cnc(C(F)F)cc1-c1cc(Oc2nccs2)ccc1C(=O)Nc1nnc(C#CC2CC2)s1 [Compound 301],< 0.25
7,COc1cnc(C(F)F)cc1-c1cc(-c2nnc(C)o2)ccc1C(=O)Nc1ncc(C#CC2CC2)s1 [Compound 120],2.5
8,Cc1ccn(-c2cc(-c3cc(C(F)F)ncc3Cl)c(C(=O)Nc3nnc(C#CC4CC4)s3)cn2)c(=O)c1 [Compound 448],< 0.25
9,COc1cnc(C(F)F)cc1-c1cc(C(=O)N(C)C)ccc1C(=O)Nc1ncc(C#CC2CC2)s1 [Compound 257],26
10,"COc1cnc(Cl)cc1-c1cc(CC(=O)N(C)C)ccc1C(=O)Nc1nnc(C#CC2CC2)s1 [Compound 35, 2-(2-chloro-5-methoxypyridin-4-yl)-N-(5-(cyclopropylethynyl)-1,3,4-thiadiazol-2-yl)-4-(2-(dimethylamino)-2-oxoethyl)benzamide]",< 0.25
11,Cn1cc(-c2cc(Cl)ncc2OC(F)F)c(C(=O)Nc2nnc(C#CC3CC34CC4)s2)cc1=O (stereo not drawn) [Compound 320],< 0.25
12,COc1cnc(C(F)F)cc1-c1cc(C#CC2(O)CCOCC2)ncc1C(=O)Nc1nnc(C#CC2CC2)s1 [Compound 255],0.26
13,"COc1cnc(C(F)F)cc1-c1cc(N2CCOCC2=O)ncc1C(=O)Nc1nnc(C#CC2CC2)s1 [Compound 110, N-(5-(cyclopropylethynyl)-1,3,4-thiadiazol-2-yl)-2′-(difluoromethyl)-5′-methoxy-6-(3-oxomorpholino)-[4,4′-bipyridine]-3-carboxamide]",< 0.25
14,"COc1cnc(C(F)F)cc1-c1cc(-n2ccccc2=O)ncc1C(=O)Nc1nnc(C#CC2CC2)s1 [Compound 122, N-(5-(cyclopropylethynyl)-1,3,4-thiadiazol-2-yl)-2″-(difluoromethyl)-5″-methoxy-2-oxo-2H-[1,2′:4′,4″-terpyridine]-5′-carboxamide]",< 0.25
15,COc1cnc(Cl)cc1-c1cc(Oc2nccs2)ccc1C(=O)Nc1nnc(C#CC2CC2)s1 [Compound 302],0.35
16,COc1cnn(-c2cc(-c3cc(C(F)F)ncc3OC)c(C(=O)Nc3nnc(C#CC4CC4)s3)cn2)c(=O)c1 [Compound 420],0.31
17,COc1cnc(C(F)F)cc1-c1cc(N2CC3(CCOCC3)CC2=O)ncc1C(=O)Nc1nnc(C#CC2CC2)s1 [Compound 360],7.2
18,COc1ccc(C(F)(F)F)cc1-c1cc(Cl)ncc1C(=O)Nc1nnc(C#CC2CC2)s1 [Compound 41],< 0.25
19,C#C[C@H]1C[C@@H]1c1nnc(NC(=O)c2cnc(CC#N)cc2-c2cc(C(F)F)ncc2OC)s1 [Compound 190],5.8
20,COc1cnc(C(F)F)cc1-c1cc(-c2ccc(C)cn2)ncc1C(=O)Nc1nnc(C#CC2CC2)s1 [Compound 436],< 0.25
21,COc1cnc(C(F)F)cc1-c1cc(-c2cnn(C(F)F)c2)ncc1C(=O)Nc1nnc(C#CC2CC2)s1 [Compound 349],< 0.25
